Experimental data taken from patent publication US10590101B2, “Benzo-N-hydroxy amide compounds having antitumor activity” (ITALFARMACO SPA, priority 2016, dated 2020).
Read-outs that look alike come from different tables or passages of the source.

Tests used:
HCT116 cells = test: Cytotoxicity in vitro, HCT116 (CellTiter 96 Aqueous One Solution); type: cell-based, human; details: for IC50: Homo sapiens, HCT-116, 72 h incubation
Description: The compounds of the present invention are small molecules of formula (I), characterised by the presence of a metal chelating moiety, the benzohydroxamate, an α-aminoacidic N-acylated central core and an α,β-unsaturation at the acyl-moiety. This particular structural feature seems responsible for the high inhibitory activity on cancer stem cell lines and on HCT116 cells (ATCC CCL-247), a human colorectal carcinoma cell line widely used in cancer biology both in vitro and in vivo (Botchkina Cancer Genom Proteom 6, 19-30, 2009; Yeung PNAS 107, 3722-3727, 2010).
(§1) The cytotoxicity activity was evaluated as follows: • Pre-B leukemia cell line 697 was seeded at 2×10^5 c/well; • Colon carcinoma cell lines HCT116, HT29 and COLO2015 were seeded at 4×10^3, 4×10^3 and 10×10^3 c/well respectively; • Primary human kidney cells were seeded at 1.5×10^3 and 6.5×10^3 in two separate experiments; • Human PBMC were seeded at 5×10^5 c/well; • Colon cancer stem cells (CSC) were seeded at 3×10^3;
(§2) Testing compounds were added after 24 h and incubated for 72 h (48 h for 697 cell line). The concentrations of molecules ranged from 10000 nM to 1.5 nM (10000 to 1 nM for 697 cell line). The cytotoxic activity of compounds was evaluated using the CellTiter 96® Aqueous One Solution Cell Proliferation Assay (Promega) which measures the functionality of mitochondria according to manufacturer's instructions. For Colon cancer stem cells viability was determined with CellTiter-Glo Luminescent cell viability assay (Promega).
(§3) The activity of compounds at any dose is calculated as percentage of inhibition versus vehicle-treated control (=0). The IC50s are extrapolated from the inhibition dose/response curve using GraphPad Prism program.

[1] = test system: Pre-B leukemia cell line 697; test: Primary cytotoxicity screening, 697 cell line (CellTiter 96); type: cell-based; details: Table 1; 48 h incubation; read-out: CyTox697
Experimental: as §1, §2, §3

[2] = test system: Colon cancer stem cells (CSC) CSC1; test: Cytotoxicity in vitro, colon cancer stem cells CSC1 (CellTiter-Glo); type: cell-based; details: 72 h incubation
Experimental: as §1, §2, §3

[3] = test system: COLO205 colon cancer cell line; test: Cytotoxicity in vitro, COLO205 (CellTiter 96); type: cell-based; details: Homo sapiens, COLO 205; 72 h incubation; read-out: COLO205 IC 50
Experimental: as §1, §2
(§4) The compound cytotoxicity was confirmed by further assays on two other colon cancer cell lines HT29 (ATCC HTB38) and Colo205 (ATCC CCL222) and on colon cancer stem cells (CSCs) (see table 2 and 3). It is worth noting that cytotoxic activity toward human primary kidney cells and peripheral blood mononuclear cells (PBMC) isolated from healthy donors was lower compared to tumor cells cytotoxicity (see table 4).
as §3

HCT116 xenograft = test: Antitumor activity in vivo, sc xenograft model of colon cancer; set-up: species or system CD1 nude female mice; details: ip
Experimental: Female CD-1 nude mice, 5 weeks of age and 20 to 22 g of weight, were housed in the animal house of the Italfarmaco Research Centre. Mice were maintained in micro isolator cages and supplied with sterile food and water under standard conditions.
Xenografts were generated by sc injection of 7×10^6 HCT116 cells in the right flank of the animals.
Tumor sizes were determined by caliper measurements and tumor volumes were calculated according to the following formula: Tumor volume (mm^3)=(w2×1)/2 where “w” is the width and “l” is the length of the carcinoma in mm.
Tumor growth was followed by volume measurement three times a week.
Tumor mass reached a measurable size three weeks after transplantation, at this time, treatments began.
Two reference compounds were also used in the experiment. The cinnamic hydroxamic acid panobinostat and 5-FU. The compounds were administered at the MTD according to previous experiments or as described in the literature.

Human PBMC = test: Cytotoxicity in vitro, PBMC from healthy donors (CellTiter 96); type: cell-based
Experimental: as §1, §2, §4, §3

[4] = test system: HT29 colon cancer cell line; test: Cytotoxicity in vitro, HT29 (CellTiter 96); type: cell-based; details: Homo sapiens, HT-29; 72 h incubation; read-out: HT29 IC 50
Experimental: as §1, §2, §4, §3

[5] = test system: Primary human kidney cells; test: Cytotoxicity in vitro, primary renal cells (CellTiter 96); type: cell-based
Experimental: as §1, §2, §4, §3

[6] = test system: Colon cancer stem cells (CSC) CSC3; test: Cytotoxicity in vitro, colon cancer stem cells CSC3 (CellTiter-Glo); type: cell-based; details: 72 h incubation; read-out: CSC3 IC 50
Experimental: as §1, §2, §3

[7] = test system: Colon cancer stem cells (CSC) CSC2; test: Cytotoxicity in vitro, colon cancer stem cells CSC2 (CellTiter-Glo); type: cell-based; details: 72 h incubation; read-out: CSC2 IC 50
Experimental: as §1, §2, §3

[8] = Force degradation test (chemical stability); type: physicochemical
[9] = Table 2, read-out: HCT-116 IC 50
[10] = PBMC 1, 72 h incubation, read-out: PBMC 1 IC 50
[11] = PBMC 2, 72 h incubation, read-out: PBMC 2 IC 50
[12] = Renal.ep1, 72 h incubation, read-out: Renal.ep1 IC 50
[13] = Renal.ep2, 72 h incubation, read-out: Renal.ep2 IC 50

SMILES	IC50 (HCT116 cells; Table 1, read-out: HCT116) [nM]	IC50 [1] [nM]	IC50 ([2]; Table 1, read-out: CSC1) [nM]	IC50 (HCT116 cells; [9]) [nM]	IC50 [3] [nM]	IC50 (Human PBMC; [10]) [nM]	IC50 (Human PBMC; [11]) [nM]	IC50 [4] [nM]	IC50 [6] [nM]	IC50 [7] [nM]	IC50 ([2]; Table 3, read-out: CSC1 IC 50) [nM]	further results
O=C(CCc1ccccc1)N[C@@H](Cc1ccccc1)C(=O)Nc1ccc(C(=O)NO)cc1	806	770	332	–	–	–	–	–	–	–	–	–
O=C(COc1ccccc1)N[C@@H](Cc1ccccc1)C(=O)Nc1ccc(C(=O)NO)cc1	466	59	424	–	–	–	–	–	–	–	–	–
COc1ccc(C[C@H](NC(=O)/C=C/c2ccc3c(c2)OCO3)C(=O)Nc2ccc(C(=O)NO)cc2)cc1 [Compound 1D, (2S)-2-[[(E)-3-(1,3-benzodioxol-5-yl)prop-2-enoyl]amino]-N-[4-(hydroxycarbamoyl)phenyl]-3-(4-methoxyphenyl)propanamide]	–	–	–	18	146	80	152	157	85	114	19	% inhib tumor vs CTRL after 44 days of treatment (HCT116 xenograft; 0.5 mg/kg): 23%; % inhib tumor vs CTRL after 44 days of treatment (HCT116 xenograft; 1 mg/kg): 22%; IC50 [5, 12]: 462 nM; IC50 [5, 13]: 321 nM
COc1ccc(C[C@H](NC(=O)/C=C/c2ccccc2)C(=O)Nc2ccc(C(=O)NO)cc2)cc1 [Compound 2D, (2S)—N-[4-(hydroxycarbamoyl)phenyl]-3-(4-methoxyphenyl)-2-[[(E)-3-phenylprop-2-enoyl]amino]propanamide]	–	–	–	14	73	89	42	61	70	100	50	% inhib tumor vs CTRL after 44 days of treatment (HCT116 xenograft; 1 mg/kg): 33%
O=C(/C=C/c1ccc2c(c1)OCO2)N[C@@H](Cc1ccccc1)C(=O)Nc1ccc(C(=O)NO)cc1 [Compound 4D, (2S)-2-[[(E)-3-(1,3-benzodioxol-5-yl)prop-2-enoyl]amino]-N-[4-(hydroxycarbamoyl)phenyl]-3-phenyl-propanamide]	–	–	–	19	201	359	601	215	91	102	13	% inhib tumor vs CTRL after 44 days of treatment (HCT116 xenograft; 5 mg/kg): 54%; % inhib tumor vs CTRL after 44 days of treatment (HCT116 xenograft; 10 mg/kg): 39%; IC50 [5, 12]: 778 nM
O=c1[nH]cc(F)c(=O)[nH]1 [Compound 5-FU, 5-FU, reference compound]	–	–	–	–	–	–	–	–	–	–	–	% inhib tumor vs CTRL after 44 days of treatment (HCT116 xenograft; 10 mg/kg): 36%; % inhib tumor vs CTRL after 44 days of treatment (HCT116 xenograft; 70 mg/kg, once a week): 61%
O=C(/C=C/c1ccccc1)N[C@@H](Cc1ccccc1)C(=O)Nc1ccc(C(=O)NO)cc1 [Compound 5D, (2S)—N-[4-(hydroxycarbamoyl)phenyl]-3-phenyl-2-[[(E)-3-phenyl-2-enoyl]amino]propanamide]	–	–	–	14	221	147	595	197	230	102	26	% inhib tumor vs CTRL after 44 days of treatment (HCT116 xenograft; 5 mg/kg): 46%; IC50 [5, 12]: 1060 nM; IC50 [5, 13]: 511 nM
O=C(/C=C\c1ccccc1)N[C@@H](Cc1ccccc1)C(=O)Nc1ccc(C(=O)NO)cc1 [Compound 5DZ, (S,Z)—N-hydroxy-4-(3-phenyl-2-(3-phenylacrylamido)propanamido)benzamide]	–	–	–	–	–	–	–	–	–	–	–	potency on HCT116 cells compared with the trans-form (HCT116 cells; cis-form vs trans-form): less potent; stability at high temperatures ([8]; 15 days at 80° C.): little less stable; stability at low pH ([8]; 15 days at pH 2): definitely less stable; chemical stability compared with the trans ([8]; cis-form vs trans): chemically less stable
Cc1[nH]c2ccccc2c1CCNCc1ccc(/C=C/C(=O)NO)cc1 [Panobinostat, panobinostat, reference compound]	–	–	–	–	–	–	–	–	–	–	–	% inhib tumor vs CTRL after 44 days of treatment (HCT116 xenograft; 1 mg/kg): 34%
COc1ccc(C[C@H](NC(=O)/C=C/c2ccc3c(c2)OCO3)C(=O)Nc2ccc(C(=O)NO)cc2)cc1 [drawing 46]	18	3	192	–	–	–	–	–	–	–	–	–
COc1ccc(C[C@H](NC(=O)/C=C/c2ccccc2)C(=O)Nc2ccc(C(=O)NO)cc2)cc1 [drawing 50]	13	22	40	–	–	–	–	–	–	–	–	–
O=C(/C=C/c1ccc2c(c1)OCO2)N[C@@H](Cc1ccccc1)C(=O)Nc1ccc(C(=O)NO)cc1 [drawing 55]	11	85	37	–	–	–	–	–	–	–	–	–
O=C(/C=C/c1ccccc1)N[C@@H](Cc1ccccc1)C(=O)Nc1ccc(C(=O)NO)cc1 [drawing 59]	10	45	73	–	–	–	–	–	–	–	–	–
